Assay [1] addresses [3H] Noradenaline reuptake in rat brain tissue. As to the kind of experiment: in vitro [3H]noradrenaline reuptake inhibition in rat brain tissue. It counts as biochemical. The conditions noted are these: means of ≧3 separate determinations.
Assay [2] addresses [3H] Dopamine reuptake in rat brain tissue. The experiment in a line: in vitro [3H]dopamine reuptake inhibition in rat brain tissue. It counts as biochemical. Conditions: means of ≧3 separate determinations.

What is called Ki is the dissociation constant of the complex between target and ligand, obtained from inhibition or displacement. Lower therefore signals higher affinity. In the case of `COc1ccc(C(CN(C)C)C2(O)CCCCC2)cc1` (stereo not shown) [Venlafaxine], the values for the Ki in assay [1] and in assay [2] were 196 nM and 2590 nM, respectively.

Take `CC(NC(C)(C)C)C(=O)c1cccc(Cl)c1` (stereo not shown) [Bupropion]: the Ki in assay [1] came out at 2590 nM; in assay [2], 409 nM.

Source of the values: patent US6365632B1, “Treatment of orthostatic hypotension” (Knoll Pharmaceuticals Company, priority 1999, dated 2002).
